Experimental data published in article PMC5025885, “Identification of Doxorubicin as an Inhibitor of the IRE1α-XBP1 Axis of the Unfolded Protein Response” (Scientific Reports, 2016).

Molecular target: T1, IRE1α (Homo sapiens, UniProt O75460)
T1 construct: gene ERN1
Assay: cell-free in vitro IRE1α RNase assay on XBP1 and BLOC1S1 RNA substrates
Assay type: biochemical

T1 sequence (O75460 19-977): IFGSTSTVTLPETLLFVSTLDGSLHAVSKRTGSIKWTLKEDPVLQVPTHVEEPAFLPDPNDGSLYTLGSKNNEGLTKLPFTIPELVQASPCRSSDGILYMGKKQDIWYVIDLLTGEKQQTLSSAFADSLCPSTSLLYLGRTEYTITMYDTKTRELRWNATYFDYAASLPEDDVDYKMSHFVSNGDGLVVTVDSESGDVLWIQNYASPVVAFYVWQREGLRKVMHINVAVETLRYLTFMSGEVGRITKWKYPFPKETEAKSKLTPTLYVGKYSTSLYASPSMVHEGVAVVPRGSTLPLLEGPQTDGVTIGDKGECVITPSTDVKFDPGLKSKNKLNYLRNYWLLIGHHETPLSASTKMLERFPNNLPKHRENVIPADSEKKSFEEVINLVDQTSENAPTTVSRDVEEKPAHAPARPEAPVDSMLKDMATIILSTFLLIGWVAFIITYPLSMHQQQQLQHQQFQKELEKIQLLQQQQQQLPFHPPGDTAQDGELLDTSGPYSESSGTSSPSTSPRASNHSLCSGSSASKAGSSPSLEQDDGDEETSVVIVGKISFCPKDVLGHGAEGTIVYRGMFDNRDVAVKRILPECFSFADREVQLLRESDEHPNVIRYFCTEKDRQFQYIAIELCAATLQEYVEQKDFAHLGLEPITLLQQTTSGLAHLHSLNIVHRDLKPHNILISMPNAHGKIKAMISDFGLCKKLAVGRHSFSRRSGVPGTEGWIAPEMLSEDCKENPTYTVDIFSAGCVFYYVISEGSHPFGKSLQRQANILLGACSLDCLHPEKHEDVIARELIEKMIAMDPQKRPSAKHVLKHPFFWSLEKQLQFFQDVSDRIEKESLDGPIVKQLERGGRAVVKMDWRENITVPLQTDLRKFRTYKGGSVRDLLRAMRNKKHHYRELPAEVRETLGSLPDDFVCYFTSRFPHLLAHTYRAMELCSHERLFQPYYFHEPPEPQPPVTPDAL

`COc1cccc2c1C(=O)c1c(O)c3c(c(O)c1C2=O)C[C@@](O)(C(=O)CO)C[C@@H]3O[C@H]1C[C@H](N)[C@H](O)[C@H](C)O1` [doxorubicin] was tested, and the IC50 was roughly 20 µM.
